Literature values as cited in patent US20150307774A1, “Chelates, chelating agents, conjugates derived thereof and their use” (priority 2012, published 2015).

Conditions: at this pH (7.4), calculated from literature data

Q: With O=C(O)CN(CCN(CC(=O)O)CC(=O)O)CC(=O)O [EDTA] as the compound, how does the conditional stability constant read?
A: Its conditional stability constant is 14.53 Log units.
